In series [1] the test system is human placental GnRH receptor. The experiment in a line: Placental GnRH receptor binding, 125I-Buserelin label. The procedure: The newly synthesized non-mammalian GnRH analogs and other commercially available mammalian GnRH analogs were used in placental receptors binding and enzyme stability study described here. […] GnRH receptors were purified from the membrane fractions from placentas. The purification procedure for the placental GnRH receptor was performed using a modification of the method described by Bramley et al., which reference is specifically incorporated herein by reference for the purpose. Addition of enzyme inhibitors for the endogenous C-ase-1 were used as well as agents for receptor stabilization. Initially, receptor-binding assays using ^125I-Buserelin as label were performed. The competitive binding of each of the analogs was studied over a dose range of 10^−11 to 10^−6 M. Incubation was at room temperature and receptor bound label was precipitated with polyethylene glycol. Specific and non-specific binding was determined. The data was subjected to Scatchard analysis. The non-mammalian GnRH analogs' ability to bind to the placental GnRH receptor was compared to that for synthetic mammalian GnRH (SEQ ID NO: 5), Buserelin (SEQ ID NO: 10) and other mammalian analogs. […] This way, the receptor affinity for that analog could be precisely determined. Receptors from three different term placentas were used to study each of these analogs. […] Bramley T A, McPhie C A, Menzies G S 1994 Human placental gonadotropin-releasing hormone (GnRH) binding sites: 111. […] Placenta 15:733-745.
In these and additional studies, placental GnRH receptors were purified from human term placentas after homogenization in 40 mM Tris (pH 7.4) and filtered through cheesecloth, followed by an initial centrifugation at 1,000×g for 10 minutes. The resulting supernatant was, again, centrifuged at 35,000×g for 30 minutes and the membrane pellet was collected and resuspended in Tris buffer with 0.3 M sucrose. The protein concentration was determined. Membranes were stored frozen at −20 C until use. Before use, placental membranes were diluted to 5,000 μg/mL with Tris buffer containing 0.5% BSA and 50 U/mL bacitracin. […] Following incubation at room temperature for 4 hours, the bound and free hormones were separated using polyethylene glycol precipitation, followed by centrifugation. The binding affinity for each GnRH isoform or analog was calculated using the double reciprocal plot of bound versus free ligand. Each study was done using three different human term placental tissues.
Receptor assays were performed by incubating human term placental GnRH receptors with varying concentrations of GnRH or its analogs in the presence of ^125I-Buserelin. The reaction was stopped and the bound hormone precipitated with polyethylene glycol.

In series [2] the test system is early human placental explants. The series can be described thus: Placental explant perifusion, hCG release. Format: cell-based. The text has this:
Placental tissues that are normally discarded were obtained from unidentified patients following first trimester pregnancy termination (early human placental explants). Tissue fragments, dissected of vessels and membranes, were placed in a perfusion system for study of 20 replicate chambers of the same tissue. This allows for simultaneous dose-response studies to be performed. To achieve this specific aim, explants from a given placenta were placed in 20 replicate chambers and perfused with basal medium for three hours at a rate of 6 ml/hr (dead volume of the system at 6 ml/hr is ten minutes). After three hours of equilibration, the analog was added to the basal perfusing medium. Quaduplicate chambers were made for chicken II GnRH analog (SEQ ID NO: 2) at 0, 10^−9, 10^−8, 10^−7, 10^−6 M and Buserelin (SEQ ID NO: 10) at 10^−7 M. The effluent medium of each chamber was collected after a three hour equilibration period. Two basal samples, at half hour intervals were collected, media with test substances was initiated and effluent medium collection continued for four and one half hours at thirty minute intervals. The hCG release was analyzed in each of these experiments. FIGS. 16 and 17 illustrate a typical response. […] Maximal response was observed within minutes after initiation of perfusion at 10^−8 M, with possible down regulation beginning after five hours at 10^−6 M as illustrated in FIG. 18.
In additional experiments, early gestation human placentas were perfused for six hours with medium supplemented with estradiol, progesterone, bovine serum albumin, and antibiotics (basal medium). Twenty replicate chambers were perifused with basal medium for two hours, then triplicate chambers were perifused with the medium containing either Buserelin (SEQ ID NO: 10), or 10^−9, 10^−8, 10^−7, 10^−6 M of a chicken II GnRH analog (SEQ ID NO: 2), leaving five control chambers. The eluted medium was collected at thirty minute intervals, starting one hour prior to the addition of GnRH analogs and throughout five hours of treatment. hCG released into the effluent media, as well as the production of GnRH, were measured using sensitive and specific radioimmunoassays. The release of hCG at each time point was normalized to its zero treatment release and the release throughout the treatment period and its average release was compared for various treatment regimens. These studies were repeated using tissues from three different first trimester placentas. The results of this experiment are illustrated in FIG. 20.

The next series relates to baboon granulosa cells. The experiment in a line: Baboon granulosa cell culture, progesterone release. As to conditions: chicken II analog 10^−9 to 10^−6 M; Buserelin 10^−7. The format is cell-based. An excerpt:
The biopotency of chicken II GnRH analogs (SEQ ID NO: 2) in the regulation of baboon ovarian function was studied. The effect of mammalian and chicken II GnRH analogs (SEQ ID NO: 2) on ovarian progesterone release was studied using granulosa cell cultures. The dose-related action of a stable analog of chicken II GnRH (SEQ ID NO: 2) on progesterone production was defined using baboon granulosa cell cultures. After a two hour basal study period, the medium was supplemented with either Buserilin (SEQ ID NO: 10) (10^−7) or a chicken II GnRH analog (SEQ ID NO: 2) (10^−9, 10^−8, 10^−7, 10^−6 M) leaving four control wells. […] This inhibition was sustained after 48 hours of treatment. […] In addition, the action of the analog on three different stromal and three different epithelial endometrial primary cell lines (after 3-5 passages) has been studied and PGE2 determined as indicated in FIG. 31.

The target in another series is placental GnRH receptor. The series can be described thus: Mean. The text has this:
Table printed on a drawing sheet, Fig. 1
The patent's description of the figure: FIG. 1. Placental Kds for Chicken II and Mammalian GnRH Analogs
First copying reader's note: Each column is one GnRH analog; the rows are Kd values in individual placentas, followed by the mean and SEM.
Where the first naming reader finds the target: passage: the affinity for the placental GnRH receptor was enhanced 2 fold

Series [3] relates to chorionic peptidase-1 (C-ase-1). The experiment in a line: C-ase-1 enzyme activity assay, competition for degradation of GnRH.
Experimental: Using the incubation system developed for the C-ase-1 activity, the degradation of each analog was tested. […] These studies were done using the C-ase-1 enzyme activity assay as described previously. […] The product formed was calculated by subtraction, and its inverse plotted against the inverse of the original substrate concentrations to determine the nature of the competition. The Ki was to be determined by plotting the inverse of the product that formed verses the inhibitor used.
The concentration of the product of the degraded GnRH was quantified by subtracting the remaining mammalian GnRH from the starting concentrations of mammalian GnRH. […] The Ks for the degradation of mammalian GnRH was calculated from the x axis intercept using Lineweaver-Burke double reciprocal plot of the concentration of the product formed versus the concentration of the substrate used.
The reaction was stopped by heating at 85° C. for 10 minutes. The remaining GnRH was determined using a specific radioimmunoassay. The formation of product, i.e., the N-terminal nonapeptide of GnRH, was calculated by subtraction and its inverse was plotted versus the inverse of the initial substrate to determine the Ks of the reaction. […] The relative potency of each analog was compared.
Using the incubation system developed for the C-ase-1 activity, the degradation of each analog was studied. […] The inverse of the product was plotted against the inverse of the original substrate concentrations to determine Ks of the competition. The Ki was determined by plotting the inverse of the product formed verses the inhibitor used.

SMILES strings stand for the structures.

The values below come from patent US20050282745A1, “Non-mammalian GnRH analogs and uses thereof in regulation of fertility and pregnancy” (priority 2001, published 2005).

As for `CCNC(=O)[C@@H]1CCCN1C(=O)[C@H](CCCNC(=N)N)NC(=O)[C@H](CC(C)C)NC(=O)[C@@H](COC(C)(C)C)NC(=O)[C@H](Cc1ccc(O)cc1)NC(=O)[C@H](CO)NC(=O)[C@H](Cc1c[nH]c2ccccc12)NC(=O)[C@H](Cc1cnc[nH]1)NC(=O)[C@@H]1CCC(=O)N1` [Buserelin], in series [1] (125I-Buserelin, Example VI), the “receptor activity/potency compared with GnRH” value is on record as “twice as active”. For the same molecule, the “receptor binding potency compared with mammalian GnRH” value in series [1] (Buserelin label, Example II) is on record as “three-fold more potent”. Besides, in series [2] (10^−7 M), the hCG response entry was “small stimulation of hCG at early time points”. Further, the “average stimulation of hCG release, relative to control tissues” value in series [2] (throughout five hours of perifusion) came out at 150%. Besides, in the series on baboon granulosa cells, the “effect on progesterone release, in words” value is “without significant effect”. Moreover, the Kd on placental GnRH receptor was determined as 0.579 ± 0.084 µM. Besides, the “degradation by / competition for C-ase-1, in words” value in series [3] is given as “potent competitive inhibitors”. In addition, the “degradation/competition relative to mammalian GnRH” value in series [3] (Example III) is “one fourth the rate”. Further, in series [3] (competition for degradation of mammalian GnRH, Example III), affinity was put at a Ki of 0.11 µM.

Usually Kd stands for a measure of binding affinity in units of concentration. A higher Kd goes with a looser complex. By Ki is commonly meant the dissociation constant of the complex between target and ligand, obtained from inhibition or displacement. High values mean weaker binding, low ones tighter binding.
